Experimental findings from ChEMBL document CHEMBL4622949, “A chalcone derivative binds a putative allosteric site of YopH: Inhibition of a virulence factor of Yersinia” (Bioorg Med Chem Lett, 2020) are described below.

This assay deals with T1, Tyrosine-protein phosphatase non-receptor type 22 (Homo sapiens, UniProt Q9Y2R2).
T1 sequence (Q9Y2R2 whole entry): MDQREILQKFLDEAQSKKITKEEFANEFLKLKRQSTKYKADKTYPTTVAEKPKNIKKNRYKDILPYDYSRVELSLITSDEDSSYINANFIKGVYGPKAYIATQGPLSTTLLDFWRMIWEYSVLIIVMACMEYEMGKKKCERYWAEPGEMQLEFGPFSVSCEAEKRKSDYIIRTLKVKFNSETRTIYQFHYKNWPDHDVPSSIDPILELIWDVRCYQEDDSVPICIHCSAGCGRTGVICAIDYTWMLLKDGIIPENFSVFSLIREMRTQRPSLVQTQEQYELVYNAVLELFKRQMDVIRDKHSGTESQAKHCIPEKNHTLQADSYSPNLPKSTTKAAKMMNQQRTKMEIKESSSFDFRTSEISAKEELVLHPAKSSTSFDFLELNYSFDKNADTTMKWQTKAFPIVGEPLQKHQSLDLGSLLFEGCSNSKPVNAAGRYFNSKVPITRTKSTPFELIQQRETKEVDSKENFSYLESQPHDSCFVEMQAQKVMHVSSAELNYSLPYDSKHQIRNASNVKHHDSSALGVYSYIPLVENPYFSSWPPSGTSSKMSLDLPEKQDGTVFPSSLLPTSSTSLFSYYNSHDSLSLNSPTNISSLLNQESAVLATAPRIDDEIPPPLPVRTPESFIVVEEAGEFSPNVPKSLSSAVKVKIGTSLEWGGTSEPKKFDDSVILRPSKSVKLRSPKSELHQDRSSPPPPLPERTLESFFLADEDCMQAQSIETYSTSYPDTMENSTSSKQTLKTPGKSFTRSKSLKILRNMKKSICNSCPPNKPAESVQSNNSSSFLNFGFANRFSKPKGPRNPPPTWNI
The experiment in a line: Inhibition of LYP (unknown origin) at 25 uM using pNPP as substrate relative to control.

The structures appear in SMILES notation.

`O=C(O)c1ccc(/C=C/C(=O)c2ccc(F)cc2)cc1`: the inhibition (usually the share of the control response that was lost under treatment) at 25 µM turned out to be 11.4%. The figure for `COc1ccc(C(=O)/C=C/c2ccc(C(=O)O)cc2)cc1OC` is 4.2%. Under `O=C(O)c1ccc(/C=C/C(=O)c2ccc(Br)cc2)cc1` stands 15.7%. The figure for `COc1ccc(OC)c(C(=O)/C=C/c2ccc(C(=O)O)cc2)c1` is 15.8%; for `COc1cc(C(=O)/C=C/c2ccc(C(=O)O)cc2)ccc1O` it is 9.1%; for `O=C(O)c1ccc(/C=C/C(=O)c2ccccc2)cc1` it is 4.2%. `Cc1ccc(C(=O)/C=C/c2ccc(C(=O)O)cc2)cc1` showed an inhibition at 25 µM of 9.5%. The figure for `COc1cccc(C(=O)/C=C/c2ccc(C(=O)O)cc2)c1` is 6.8%; for `O=C(O)c1ccc(/C=C/C(=O)n2ccnc2)cc1` it is 25.7%.
